In PMC7162534 (ACS nano, 2020):
Like-named read-outs stand apart in the source and are kept apart here.

Key:
[1] = target: maltose-binding protein (MBP) (Escherichia coli, UniProt P0AEX9); set-up: species or system E. coli; conditions: for current signal of trapped MBP on addition of the sugar: added to the cis chamber; for frequency of state 1 / frequency of state 2 / frequency of state 3: 1 μM maltose
MBP = MBP (Escherichia coli, UniProt P0AEX9); conditions: read-out: Kd, previously determined value; cited from earlier work
[2] = cited from earlier work
[3] = assumption that state 3 represents MBP bound to an aldehyde intermediate
[4] = state 1, β anomer, −80 mV, pH 7.5
[5] = state 2, α anomer, −80 mV, pH 7.5
[6] = state 3, β anomer (second binding mode), −80 mV, pH 7.5
[7] = 10 μM sodium phosphate, before depletion of α-maltose
[8] = after depletion of α-maltose by 0.25 unit maltose phosphorylase
[9] = in the presence of ligand, −80 mV

OC[C@H]1O[C@@](CO)(O[C@H]2O[C@H](CO)[C@@H](O)[C@H](O)[C@H]2O)[C@@H](O)[C@@H]1O [sucrose]
current signal of trapped MBP on addition of the sugar ([1]; −80 mV): no signal change

O=C[C@H](O)[C@@H](O)[C@H](O[C@H]1O[C@H](CO)[C@@H](O)[C@H](O)[C@H]1O)[C@H](O)CO [aldehyde intermediate]
Kd [1, 3]: 0.019 nM
koff [1, 3]: 1.3 ± 0.5 s⁻¹
kon [1, 3]: 6.9 ± 2.8 × 10^10 M^−1s^−1

maltotriose
Kd (MBP): 160 to 700 nM
current signal of trapped MBP on addition of the sugar ([1]; −80 mV): four states that were almost identical to the states seen with maltose
Kd ([1]; state 1, β anomer, −80 mV, 150 mM NaCl, 15 mM Tris-HCl, pH 7.5): 120 nM
koff [1, 4]: 4.8 ± 0.3 s⁻¹
kon [1, 4]: 40.8 ± 0.1 µM⁻¹ s⁻¹
association rate of major β-anomer binding state relative to α-anomer ([1]; state 1 versus state 2): more than 3 times
Kd [1, 5]: 240 ± 10 nM
koff [1, 5]: 1.6 ± 0.1 s⁻¹
kon [1, 5]: 6.6 ± 0.1 µM⁻¹ s⁻¹
Kd [1, 6]: 380 ± 20 nM
koff [1, 6]: 1.9 ± 0.4 s⁻¹
kon [1, 6]: 5.0 ± 0.2 µM⁻¹ s⁻¹

OC[C@H]1O[C@H](O[C@H]2[C@H](O)[C@@H](O)[C@@H](O)O[C@@H]2CO)[C@H](O)[C@@H](O)[C@@H]1O [α-maltose]
rate constant of spontaneous interconversion between α-maltose and β-maltose [2]: ~ 0.009 min^−1

OC[C@H]1O[C@H](O[C@H]2[C@H](O)[C@@H](O)[C@@H](O[C@H]3[C@H](O)[C@@H](O)[C@@H](O[C@H]4[C@H](O)[C@@H](O)C(O)O[C@@H]4CO)O[C@@H]3CO)O[C@@H]2CO)[C@H](O)[C@@H](O)[C@@H]1O (some centres unmarked) [maltotetraose]
current signal of trapped MBP on addition of the sugar ([1]; −80 mV): three ligand-bound current levels similar to those of maltose and maltotriose

OC[C@H]1O[C@H](O[C@H]2[C@H](O)[C@@H](O)[C@H](O)O[C@@H]2CO)[C@H](O)[C@@H](O)[C@@H]1O [Maltose, maltose]
frequency of state 1 [1, 7]: 4.28 ± 0.57 s⁻¹
frequency of state 2 [1, 7]: 0.18 ± 0.17 s⁻¹
frequency of state 1 [1, 8]: 5.59 ± 0.89 s⁻¹
frequency of state 2 [1, 8]: 0 s⁻¹
frequency of state 3 ([1]; after the depletion of α-maltose): 0.01 ± 0.02 s⁻¹
frequency of state 3 ([1]; before the depletion of α-maltose): 0.05 ± 0.04 s⁻¹
residual current, state 0 [1, 9]: 56.5 ± 0.4%
residual current, state 1 [1, 9]: 54.0 ± 0.4%
residual current, state 2 [1, 9]: 52.0 ± 0.4%
residual current, state 3 [1, 9]: 51.1 ± 0.4%

OC[C@H]1O[C@@H]2O[C@H]3[C@H](O)[C@@H](O)[C@@H](O[C@H]4[C@H](O)[C@@H](O)[C@@H](O[C@H]5[C@H](O)[C@@H](O)[C@@H](O[C@H]6[C@H](O)[C@@H](O)[C@@H](O[C@H]7[C@H](O)[C@@H](O)[C@@H](O[C@H]8[C@H](O)[C@@H](O)[C@@H](O[C@H]1[C@H](O)[C@H]2O)O[C@@H]8CO)O[C@@H]7CO)O[C@@H]6CO)O[C@@H]5CO)O[C@@H]4CO)O[C@@H]3CO [β-cyclodextrin]
current signal of trapped MBP on addition of the sugar ([1]; −80 mV): one major current level similar to state 1 of maltose
